The values that follow come from patent publication US8946215B2, “Hydroxy-substituted imidazo[1,2-a]pyridinecarboxamides and their use” (Bayer Pharma Aktiengesellschaft, priority 2012, dated 2015).

This experiment has as its target T1, recombinant guanylate cyclase reporter cell line (Rattus norvegicus, UniProt P19686+P20595).
T1 construct: expressed in transfected cells
T1 sequence (P20595 1-619): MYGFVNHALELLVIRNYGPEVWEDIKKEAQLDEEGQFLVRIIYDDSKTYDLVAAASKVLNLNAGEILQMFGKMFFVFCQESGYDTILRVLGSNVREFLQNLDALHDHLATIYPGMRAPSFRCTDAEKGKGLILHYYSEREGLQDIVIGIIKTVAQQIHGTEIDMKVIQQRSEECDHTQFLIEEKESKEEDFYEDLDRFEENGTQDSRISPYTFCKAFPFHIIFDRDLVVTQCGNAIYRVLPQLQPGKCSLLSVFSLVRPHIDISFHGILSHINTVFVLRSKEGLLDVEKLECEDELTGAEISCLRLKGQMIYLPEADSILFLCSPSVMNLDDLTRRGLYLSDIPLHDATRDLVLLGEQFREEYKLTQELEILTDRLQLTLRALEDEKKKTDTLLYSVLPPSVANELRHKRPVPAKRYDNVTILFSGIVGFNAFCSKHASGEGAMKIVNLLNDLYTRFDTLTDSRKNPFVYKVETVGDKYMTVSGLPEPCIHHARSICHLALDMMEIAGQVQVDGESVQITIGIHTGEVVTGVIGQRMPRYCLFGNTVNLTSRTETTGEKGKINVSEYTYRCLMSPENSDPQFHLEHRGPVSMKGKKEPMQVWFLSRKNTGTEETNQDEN
T1 sequence (P19686 1-690): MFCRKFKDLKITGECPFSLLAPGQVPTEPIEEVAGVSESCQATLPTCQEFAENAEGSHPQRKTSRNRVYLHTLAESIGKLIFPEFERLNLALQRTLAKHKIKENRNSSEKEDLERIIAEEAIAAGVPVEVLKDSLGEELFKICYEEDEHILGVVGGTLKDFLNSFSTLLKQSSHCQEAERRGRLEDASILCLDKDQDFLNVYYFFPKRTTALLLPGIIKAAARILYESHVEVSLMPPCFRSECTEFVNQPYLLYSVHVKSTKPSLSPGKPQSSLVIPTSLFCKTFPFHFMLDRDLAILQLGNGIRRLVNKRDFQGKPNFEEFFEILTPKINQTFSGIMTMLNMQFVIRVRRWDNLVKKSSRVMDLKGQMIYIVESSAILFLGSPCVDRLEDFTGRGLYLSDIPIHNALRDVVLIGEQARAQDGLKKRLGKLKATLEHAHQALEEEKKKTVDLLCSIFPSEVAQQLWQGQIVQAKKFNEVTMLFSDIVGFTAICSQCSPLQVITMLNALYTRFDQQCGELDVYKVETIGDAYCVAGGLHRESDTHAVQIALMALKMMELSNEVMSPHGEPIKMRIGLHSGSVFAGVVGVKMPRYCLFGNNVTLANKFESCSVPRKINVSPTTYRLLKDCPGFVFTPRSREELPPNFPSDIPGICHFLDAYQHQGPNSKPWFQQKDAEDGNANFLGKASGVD
Kind of experiment: Action on recombinant guanylate cyclase reporter cell line. The note with it: in some cases mean values obtained from individual determinations. Type of experiment: cell-based. The protocol: B-2. Action on Recombinant Guanylate Cyclase Reporter Cell Line
The cellular action of the compounds according to the invention is determined on a recombinant guanylate cyclase reporter cell line, as described in F. Wunder et al., Anal. Biochem. 339, 104-112 (2005).
Representative values (MEC=minimal effective concentration) for the compounds according to the invention are shown in the following table (in some cases as mean values obtained from individual determinations): […]

Where a name gives a salt, the structure may show the parent alone.

As to `Cc1cc(OCc2ncccc2F)c2nc(C)c(C(=O)NC(CCC(O)C(F)(F)F)C(C)(C)O)n2c1` (mixture of isomers) [Example 195, 8-[(3-fluoropyridin-2-yl)methoxy]-2,6-dimethyl-N-(7,7,7-trifluoro-2,6-dihydroxy-2-methylheptan-3-yl)imidazo[1,2-a]pyridine-3-carboxamide (stereoisomer mixture)], the “MEC (minimal effective concentration)” value was determined as 10 µM.

As for `Cc1nc2c(OCc3c(F)cccc3F)cccn2c1C(=O)NC1CCC(O)CC1` (racemic) [Example 42, (rac)-8-[(2,6-difluorobenzyl)oxy]-N-(trans-4-hydroxycyclohexyl)-2-methylimidazo[1,2-a]-pyridine-3-carboxamide], the “MEC (minimal effective concentration)” value turned out to be 1.0 µM.

For the compound `CCC(CO)NC(=O)c1c(C)nc2c(OCC3CCCCC3)cccn12` (racemic) [Example 69, (rac)-8-(cyclohexylmethoxy)-N-(1-hydroxybutan-2-yl)-2-methylimidazo)[1,2-a]pyridine-3-carboxamide formate], the “MEC (minimal effective concentration)” value worked out at 0.1 µM.

For `C=CCC(CO)NC(=O)c1c(C)nc2c(OCC3CCCCC3)cccn12` (racemic) [Example 70, (rac)-8-(cyclohexylmethoxy)-N-(1-hydroxypent-4-en-2-yl)-2-methylimidazo[1,2-a]pyridine-3-carboxamide], the “MEC (minimal effective concentration)” value turned out to be 0.1 µM.

Take `Cc1nc2c(OCC3CCCCC3)cccn2c1C(=O)N[C@H]1CCC[C@@H]1O` (racemic) [Example 71, (rac)-8-(cyclohexylmethoxy)-N-[trans-2-hydroxycyclopentyl]-2-methylimidazo[1,2-a]-pyridine-3-carboxamide]: the “MEC (minimal effective concentration)” value was determined as 0.1 µM.

For the compound `Cc1nc2c(OCC3CCCCC3)cccn2c1C(=O)N[C@@H]1CCCC[C@H]1O` (racemic) [Example 78, (rac)-8-(cyclohexylmethoxy)-N-[(trans)-2-hydroxycyclohexyl]-2-methylimidazo[1,2-a]-pyridine-3-carboxamide], the “MEC (minimal effective concentration)” value was found to be 0.3 µM.

As to `Cc1nc2c(OCc3c(F)cccc3F)cccn2c1C(=O)NC(CO)CC(F)(F)F` (racemic) [Example 100, rac-8-[(2,6-Difluorobenzyl)oxy]-2-methyl-N-(4,4,4-trifluoro-hydroxybutan-2-yl)imidazo[1,2-a]-pyridine-3-carboxamide trifluoroacetate], the “MEC (minimal effective concentration)” value is 0.03 µM.

For `Cc1nc2c(OCc3c(F)cccc3F)cccn2c1C(=O)NC(CO)CCC(F)(F)F` (racemic) [Example 101, rac-8-[(2,6-difluorobenzyl)oxy]-2-methyl-N-(5,5,5-trifluoro-1-hydroxypentan-2-yl)-imidazo[1,2-a]pyridine-3-carboxamide trifluoroacetate], the “MEC (minimal effective concentration)” value worked out at 0.1 µM.

For `Cc1nc2c(OCc3c(F)cccc3F)cccn2c1C(=O)NC(CO)CCCC(F)(F)F` (racemic) [Example 102, rac-8-[(2,6-difluorobenzyl)oxy]-2-methyl-N-(6,6,6-trifluoro-1-hydroxyhexan-2-yl)-imidazo[1,2-a]pyridine-3-carboxamide trifluoroacetate], under “trifluoroacetate”, the “MEC (minimal effective concentration)” value turned out to be 0.1 µM.

As for `Cc1nc2c(OCc3c(F)cccc3F)cccn2c1C(=O)NC(CO)c1ccc(F)cc1` (racemic) [Example 103, rac-8-[(2,6-difluorobenzyl)oxy]-N-[1-(4-fluorophenyl)-2-hydroxyethyl]-2-methylimidazo[1,2-a]pyridine-3-carboxamide trifluoroacetate], the “MEC (minimal effective concentration)” value amounted to 0.1 µM.

Consider `Cc1nc2c(OCc3c(F)cccc3F)cccn2c1C(=O)NCC(O)C(F)(F)F` (racemic) [Example 106, rac-8-[(2,6-difluorobenzyl)oxy]-2-methyl-N-(3,3,3-trifluoro-2-hydroxypropyl)imidazo[1,2-a]pyridine-3-carboxamide trifluoroacetate], for which the “MEC (minimal effective concentration)” value is 0.3 µM.

For `Cc1nc2c(OCc3c(F)cccc3F)cccn2c1C(=O)NC(CO)C(F)(F)F` (racemic) [Example 110, rac-8-[(2,6-Difluorobenzyl)oxy]-2-methyl-N-(1,1,1-trifluoro-3-hydroxypropan-2-yl)imidazo[1,2-a]pyridine-3-carboxamide], the “MEC (minimal effective concentration)” value stood at 0.3 µM.

Turning to `Cc1nc2c(OCc3c(F)cccc3F)cccn2c1C(=O)NC(CO)CC(F)(F)F` (racemic) [Example 113, rac-8-[(2,6-Difluorobenzyl)oxy]-2-methyl-N-(4,4,4-trifluoro-1-hydroxybutan-2-yl)imidazo[1,2-a]-pyridine-3-carboxamide], the “MEC (minimal effective concentration)” value came to 0.03 µM.

Consider `Cc1nc2c(OCc3c(F)cccc3F)cccn2c1C(=O)NC(CO)CCCC(F)(F)F` (racemic) [Example 114, rac-8-[(2,6-difluorobenzyl)oxy]-2-methyl-N-(6,6,6-trifluoro-1-hydroxyhexan-2-yl)imidazo[1,2-a]pyridine-3-carboxamide], for which the “MEC (minimal effective concentration)” value came to 0.03 µM.

For the compound `Cc1nc2c(OCc3c(F)cccc3F)cccn2c1C(=O)NC(CO)c1ccccn1` (racemic) [Example 119, rac-8-[(2,6-difluorobenzyl)oxy]-N-[2-hydroxy-1-(pyridin-2-yl)ethyl]-2-methylimidazo[1,2-a]-pyridine-3-carboxamide], the “MEC (minimal effective concentration)” value came to 0.3 µM.

On to `Cc1nc2c(OCc3c(F)cccc3F)cccn2c1C(=O)NC(CO)c1ccc(S(C)(=O)=O)cc1` (racemic) [Example 120, rac-8-[(2,6-difluorobenzyl)oxy]-N-{2-hydroxy-1-[4-(methylsulphonyl)phenyl]ethyl}-2-methylimidazo[1,2-a]pyridine-3-carboxamide], for which the “MEC (minimal effective concentration)” value stood at 1.0 µM.

On to `Cc1nc2c(OCc3c(F)cccc3F)cccn2c1C(=O)NC(CO)c1cccnc1` (racemic) [Example 124, rac-8-[(2,6-Difluorobenzyl)oxy]-N-[2-hydroxy-1-(pyridin-3-yl)ethyl]-2-methylimidazo[1,2-a]-pyridine-3-carboxamide], for which the “MEC (minimal effective concentration)” value is 0.3 µM.

Regarding `Cc1nc2c(OCc3c(F)cccc3F)cccn2c1C(=O)NC(CCC(F)(F)F)C(C)(C)O` (racemic) [Example 149, rac-8-[(2,6-difluorobenzyl)oxy]-2-methyl-N-(6,6,6-trifluoro-2-hydroxy-2-methylhexan-3-yl)imidazo[1,2-a]pyridine-3-carboxamide], the “MEC (minimal effective concentration)” value came out at 0.1 µM.

With `Cc1nc2c(OCc3c(F)cccc3F)cccn2c1C(=O)NC(CCCC(F)(F)F)C(C)(C)O` (racemic) [Example 150, rac-8-[(2,6-difluorobenzyl)oxy]-2-methyl-N-(7,7,7-trifluoro-2-hydroxy-2-methylheptan-3-yl)imidazo[1,2-a]pyridine-3-carboxamide], the “MEC (minimal effective concentration)” value is 0.03 µM.

Turning to `Cc1nc2c(OCc3c(F)cccc3F)cccn2c1C(=O)NC(c1ccc(Cl)cc1)C(C)(C)O` (racemic) [Example 151, rac-N-[1-(4-chlorophenyl)-2-hydroxy-2-methylpropyl]-8-[(2,6-difluorobenzyl)oxy]-2-methylimidazo[1,2-a]pyridine-3-carboxamide], the “MEC (minimal effective concentration)” value came out at 0.3 µM.
